SMILES strings stand for the structures.

The values that follow come from patent US10550105B2 (Ribon Therapeutics Inc., priority 2018, dated 2020).

PARP7, sequence (Q7Z3E1 whole entry): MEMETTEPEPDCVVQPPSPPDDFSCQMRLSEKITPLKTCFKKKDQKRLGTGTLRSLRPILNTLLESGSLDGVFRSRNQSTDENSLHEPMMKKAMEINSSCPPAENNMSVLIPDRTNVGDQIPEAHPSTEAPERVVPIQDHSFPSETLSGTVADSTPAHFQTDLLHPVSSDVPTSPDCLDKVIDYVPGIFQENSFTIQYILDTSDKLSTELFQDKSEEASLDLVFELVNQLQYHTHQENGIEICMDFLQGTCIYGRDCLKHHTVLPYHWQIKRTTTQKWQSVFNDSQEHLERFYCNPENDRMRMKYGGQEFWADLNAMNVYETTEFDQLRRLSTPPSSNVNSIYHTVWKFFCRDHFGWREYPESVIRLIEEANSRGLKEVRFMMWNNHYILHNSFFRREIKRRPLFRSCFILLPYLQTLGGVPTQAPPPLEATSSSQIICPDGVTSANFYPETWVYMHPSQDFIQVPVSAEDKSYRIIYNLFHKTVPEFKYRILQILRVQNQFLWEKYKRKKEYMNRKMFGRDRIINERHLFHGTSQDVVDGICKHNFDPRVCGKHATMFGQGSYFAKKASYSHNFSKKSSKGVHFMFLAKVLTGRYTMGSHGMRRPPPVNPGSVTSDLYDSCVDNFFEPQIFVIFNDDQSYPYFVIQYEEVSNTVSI

The assay has as its target PARP7 (Homo sapiens (Human), UniProt Q7Z3E1). In words: Enzymatic assay for inhibition of PARP7: TR-FRET displacement of biotinylated Probe A from the TIPARP active site. The assay is classed as binding. As to conditions: Table A-1. In a few lines: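 Displacement of biotinylated Probe A from TIPARP was measured as the 665/615 nm time-resolved FRET ratio (excitation 320 nm, 90 μs delay) after a further 30 min at 25 °C. Inhibition across compound concentrations was fitted by dose-response regression, with the Hill slope free or fixed at 1 (3-parameter fit).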
Take `N#Cc1ccc(N2CCN(C(=O)c3cccc(OC[C@@H]4C[C@@H](C#N)CN4c4cn[nH]c(=O)c4C(F)(F)F)c3)CC2)nc1` [Example 464, 6-(4-(3-(((2S,4R)-4-Cyano-1-(6-oxo-5-(trifluoromethyl)-1,6-dihydropyridazin-4-yl)pyrrolidin-2-yl)methoxy)benzoyl)piperazin-1-yl)nicotinonitrile]: the IC50 was at least 1 µM.

`N#Cc1ccc(N2CCN(C(=O)c3ccc(OCCOCC4CCN(c5cn[nH]c(=O)c5C(F)(F)F)C4)cc3)CC2)nc1` (stereo not drawn) [Example 465, 6-(4-(4-(2-((1-(6-Oxo-5-(trifluoromethyl)-1,6-dihydropyridazin-4-yl)pyrrolidin-3-yl)methoxy)ethoxy)benzoyl)piperazin-1-yl)nicotinonitrile] showed an IC50 below 0.1 µM.

Compound `N#Cc1ccc(N2CCN(C(=O)CCOCCOCC3CCN(c4cn[nH]c(=O)c4C(F)(F)F)C3)CC2)nc1` (stereo not drawn) [Example 466, 6-(4-(3-(2-((1-(6-Oxo-5-(trifluoromethyl)-1,6-dihydropyridazin-4-yl)pyrrolidin-3-yl)methoxy)ethoxy)propanoyl)piperazin-1-yl)nicotinonitrile] returned an IC50 below 0.1 µM.

The compound `N#Cc1ccc(N2CCN(C(=O)c3cccc(OCCOCC4CCN(c5cn[nH]c(=O)c5C(F)(F)F)C4)c3)CC2)nc1` (stereo not drawn) [Example 467, 6-(4-(3-(2-((1-(6-Oxo-5-(trifluoromethyl)-1,6-dihydropyridazin-4-yl)pyrrolidin-3-yl)methoxy)ethoxy)benzoyl)piperazin-1-yl)nicotinonitrile] had an IC50 below 0.1 µM.

As to `N#Cc1ccc(N2CCN(C(=O)CCOC[C@@H]3CCCN3c3cn[nH]c(=O)c3Cl)CC2)nc1` [Example 468, (S)-6-(4-(3-((1-(5-Chloro-6-oxo-1,6-dihydropyridazin-4-yl)pyrrolidin-2-yl)methoxy)propanoyl)piperazin-1-yl)nicotinonitrile], the half-inhibitory concentration (IC50) is below 0.1 µM.

Take `N#Cc1ccc(N2CCN(C(=O)c3cccc(OCC4CCN(c5cn[nH]c(=O)c5C(F)(F)F)C4)c3)CC2)nc1` (stereo not drawn) [Example 469, 6-(4-(3-((1-(6-Oxo-5-(trifluoromethyl)-1,6-dihydropyridazin-4-yl)pyrrolidin-3-yl)methoxy)benzoyl)piperazin-1-yl)nicotinonitrile]: the 50% inhibitory concentration (IC50) was below 0.1 µM.

`N#Cc1ccc(N2CCN(C(=O)c3cccc(OCCOC[C@@H]4CCN(c5cn[nH]c(=O)c5C(F)(F)F)C4)c3)CC2)nc1` [Example 470, (R)-6-(4-(3-(2-((1-(6-Oxo-5-(trifluoromethyl)-1,6-dihydropyridazin-4-yl)pyrrolidin-3-yl)methoxy)ethoxy)benzoyl)piperazin-1-yl)nicotinonitrile] had a half-maximal inhibitory concentration (IC50) below 0.1 µM.

`N#Cc1ccc(N2CCN(C(=O)c3cccc(OCCOC[C@H]4CCN(c5cn[nH]c(=O)c5C(F)(F)F)C4)c3)CC2)nc1` [Example 471, (S)-6-(4-(3-(2-((1-(6-oxo-5-(trifluoromethyl)-1,6-dihydropyridazin-4-yl)pyrrolidin-3-yl)methoxy)ethoxy)benzoyl)piperazin-1-yl)nicotinonitrile] showed an IC50 below 0.1 µM.

For `C#CCOC[C@@H]1CCCN1c1cn[nH]c(=O)c1C(F)(F)F` [Example 472, (S)-5-(2-((prop-2-yn-1-yloxy)methyl)pyrrolidin-1-yl)-4-(trifluoromethyl)pyridazin-3(2H)-one], the 50% inhibitory concentration (IC50) is at least 1 µM.

In turn, `CC1CN(c2ccc(C#N)cn2)CCN1C(=O)CCOC[C@@H]1CCCN1c1cn[nH]c(=O)c1C(F)(F)F` (stereo partly drawn) [Example 473, 6-(3 -Methyl-4-(3-(((S)-1-(6-oxo-5-(trifluoromethyl)-1,6-dihydropyridazin-4-yl)pyrrolidin-2-yl)methoxy)propanoyl)piperazin-1-yl)nicotinonitrile] showed an IC50 below 0.1 µM.

For `N#Cc1cnc(N2CCN(C(=O)CCOC[C@@H]3CCCN3c3cn[nH]c(=O)c3C(F)(F)F)CC2)cn1` [Example 474, (S)-5-(4-(3-((1-(6-Oxo-5-(trifluoromethyl)-1,6-dihydropyridazin-4-yl)pyrrolidin-2-yl)methoxy)propanoyl)piperazin-1-yl)pyrazine-2-carbonitrile], the IC50 is below 0.1 µM.

Take `N#Cc1ccc(N2CCN(C(=O)CCOC[C@@H]3CCCN3c3cn[nH]c(=O)c3C(F)(F)F)CC2)cn1` [Example 475, (S)-5-(4-(3-((1-(6-Oxo-5-(trifluoromethyl)-1,6-dihydropyridazin-4-yl)pyrrolidin-2-yl)methoxy)propanoyl)piperazin-1-yl)picolinonitrile]: the IC50 is below 0.1 µM.

In turn, `N#Cc1ncc(N2CCN(C(=O)CCOC[C@@H]3CCCN3c3cn[nH]c(=O)c3C(F)(F)F)CC2)cn1` [Example 476, (S)-5-(4-(3-((1-(6-Oxo-5-(trifluoromethyl)-1,6-dihydropyridazin-4-yl)pyrrolidin-2-yl)methoxy)propanoyl)piperazin-1-yl)pyrimidine-2-carbonitrile] had a 50% inhibitory concentration (IC50) of 0.1 to 1 µM.

`N#Cc1ccc(N2CCN(C(=O)c3ccc(OCC4CCN(c5cn[nH]c(=O)c5C(F)(F)F)C4)cc3)CC2)nc1` (stereo not drawn) [Example 477, 6-(4-(4-((1-(6-Oxo-5-(trifluoromethyl)-1,6-dihydropyridazin-4-yl)pyrrolidin-3-yl)methoxy)benzoyl)piperazin-1-yl)nicotinonitrile] came in with an IC50 below 0.1 µM.

Compound `N#Cc1ccc(N2CCN(C(=O)COCCOCC3CCN(c4cn[nH]c(=O)c4C(F)(F)F)C3)CC2)nc1` (stereo not drawn) [Example 478, 6-(4-(2-(2-((1-(6-Oxo-5-(trifluoromethyl)-1,6-dihydropyridazin-4-yl)pyrrolidin-3-yl)methoxy)ethoxy)acetyl)piperazin-1-yl)nicotinonitrile] showed a half-maximal inhibitory concentration (IC50) of 0.1 to 1 µM.

Regarding `N#Cc1ccc(N2CCN(C(=O)C34C5C6C3C3C4C5C63COC[C@@H]3CCCN3c3cn[nH]c(=O)c3C(F)(F)F)CC2)nc1` (stereo partly drawn) [Example 479, (S)-6-(4-(4-(((1-(6-Oxo-5-(trifluoromethyl)-1,6-dihydropyridazin-4-yl)pyrrolidin-2-yl)methoxy)methyl)cubane-1-carbonyl)piperazin-1-yl)nicotinonitrile], the IC50 fell in the range of 0.1 to 1 µM.

`Cc1c(N2CCC[C@H]2COCCC(=O)N2CCN(c3ccc(C#N)cn3)CC2)cn[nH]c1=O` [Example 480, (S)-6-(4-(3-((1-(5-Methyl-6-oxo-1,6-dihydropyridazin-4-yl)pyrrolidin-2-yl)methoxy)propanoyl)piperazin-1-yl)nicotinonitrile] displayed an IC50 below 0.1 µM.

`O=C(CCOC[C@@H]1CCCN1c1cn[nH]c(=O)c1C(F)(F)F)N1CCN(c2ccc(Cl)cn2)CC1` [Example 481, (S)-5-(2-((3-(4-(5-Chloropyridin-2-yl)piperazin-1-yl)-3-oxopropoxy)methyl)pyrrolidin-1-yl)-4-(trifluoromethyl)pyridazin-3(2H)-one] displayed an IC50 below 0.1 µM.

Compound `O=C(CCOC[C@@H]1CCCN1c1cn[nH]c(=O)c1C(F)(F)F)N1CCN(c2ncc(Cl)cn2)CC1` [Example 482, (S)-5-(2-((3-(4-(5-Chloropyrimidin-2-yl)piperazin-1-yl)-3-oxopropoxy)methyl)pyrrolidin-1-yl)-4-(trifluoromethyl)pyridazin-3(2H)-one] gave an IC50 below 0.1 µM.

Regarding `CS(=O)(=O)c1ccc(N2CCN(C(=O)CCOC[C@@H]3CCCN3c3cn[nH]c(=O)c3C(F)(F)F)CC2)nc1` [Example 483, (S)-5-(2-((3-(4-(5-(Methylsulfonyl)pyridin-2-yl)piperazin-1-yl)-3-oxopropoxy)methyl)pyrrolidin-1-yl)-4-(trifluoromethyl)pyridazin-3(2H)-one], the IC50 is below 0.1 µM.

`CC1(C)C[C@@H](COCCC(=O)N2CCN(c3ccc(C#N)cn3)CC2)N(c2cn[nH]c(=O)c2C(F)(F)F)C1` [Example 484, (S)-6-(4-(3-((4,4-Dimethyl-1-(6-oxo-5-(trifluoromethyl)-1,6-dihydropyridazin-4-yl)pyrrolidin-2-yl)methoxy)propanoyl)piperazin-1-yl)nicotinonitrile] came in with an IC50 below 0.1 µM.

Turning to `N#Cc1ccc(N2CCN(C(=O)CCOC[C@@H]3C[C@H](N)CN3c3cn[nH]c(=O)c3C(F)(F)F)CC2)nc1` [Example 485, 6-(4-(3-(((2S,4S)-4-Amino-1-(6-oxo-5-(trifluoromethyl)-1,6-dihydropyridazin-4-yl)pyrrolidin-2-yl)methoxy)propanoyl)piperazin-1-yl)nicotinonitrile], the IC50 was below 0.1 µM.

Turning to `N#Cc1ccc(N2CCN(C(=O)CCOC[C@@H]3C[C@@H](N)CN3c3cn[nH]c(=O)c3C(F)(F)F)CC2)nc1` [Example 486, 6-(4-(3-(((2S,4R)-4-Amino-1-(6-oxo-5-(trifluoromethyl)-1,6-dihydropyridazin-4-yl)pyrrolidin-2-yl)methoxy)propanoyl)piperazin-1-yl)nicotinonitrile], the IC50 was below 0.1 µM.

`N#Cc1ccc(N2CCN(C(=O)CCO[C@H]3C[C@@H](CN)N(c4cn[nH]c(=O)c4C(F)(F)F)C3)CC2)nc1` [Example 487, 6-(4-(3-(((3S,5S)-5-(Aminomethyl)-1-(6-oxo-5-(trifluoromethyl)-1,6-dihydropyridazin-4-yl)pyrrolidin-3-yl)oxy)propanoyl)piperazin-1-yl)nicotinonitrile] showed an IC50 of 0.1 to 1 µM.

Consider `N#Cc1ccc(N2CCN(C(=O)c3cccc(OCc4cccc5c4CN(c4cn[nH]c(=O)c4C(F)(F)F)C5)c3)CC2)nc1` [Example 488, 6-(4-(3-((2-(6-Oxo-5-(trifluoromethyl)-1,6-dihydropyridazin-4-yl)isoindolin-4-yl)methoxy)benzoyl)piperazin-1-yl)nicotinonitrile], for which the 50% inhibitory concentration (IC50) is below 0.1 µM.

As for `CC(=O)N1CCC(COc2cc3c(cc2F)CN(c2cn[nH]c(=O)c2C(C)C)C3)CC1` [Example 489, 5-(5-((1-Acetylpiperidin-4-yl)methoxy)-6-fluoroisoindolin-2-yl)-4-isopropylpyridazin-3(2H)-one], the IC50 is at least 1 µM.

The compound `N#Cc1ccc(N2CCN(C(=O)COCCOc3cccc4c3CN(c3cn[nH]c(=O)c3C(F)(F)F)C4)CC2)nc1` [Example 490, 6-(4-(2-(2-((2-(6-Oxo-5-(trifluoromethyl)-1,6-dihydropyridazin-4-yl)isoindolin-4-yl)oxy)ethoxy)acetyl)piperazin-1-yl)nicotinonitrile] displayed an IC50 below 0.1 µM.

A word on the IC50: it is the point on the concentration scale where inhibition reaches its midpoint. A high value points to weaker potency.
